Here are results for 14 compounds from patent publication EP0055490A1, “Tetrahydro-1,2,4-oxadiazin-5-one derivatives, processes for their preparation and medicines containing these compounds” (RICHTER GEDEON VEGYÉSZETI GYÁR RT, priority 1980, dated 1982).

Data set [1] deals with CFLP-Mäusen. The data set can be described thus: Maximal electroshock [MES] anticonvulsant test. As to conditions: Mus musculus, po; 20 mg/kg peroral, measured 1 hour after dosing, groups of 10 mice; corneal electrode 20 mA, 0,2 s; protection = absence of tonic hindlimb extension; read-out: Hemmwirkung in % in Bezug auf den maximalen Elektroschock. The data set is classed as in vivo. The source says: (§1) Die pharmakologischen Wirkungen der erfindungsgemäßen Tetrahydro-1,2,4-oxadiazin-5-onderivate der allgemeinen Formel I wurden in Tierversuchen nach den üblichen pharmakologischen Verfahrensweisen nachgewiesen, wobei als Vergleichssubstanzen die anerkannt gut wirksamen bekannten Handelsprodukte 5,5-Diphenylhydantoin [Vergleichssubstanz A] und 3-Methyl-5-äthyl-5-phenylhydantoin [Vergleißhssubstanz B] gleicher Wirkungsrichtung verwendet wurden. Die Tierversuche wurden mit CFLP-Mäusen (LATI, Gödöllo, Ungarn) von gemischtem Geschlecht (Körpergewicht: 18 bis 22 g) mit Gruppen von je 10 Tieren durchgeführt. Die zu untersuchenden Verbindungen wurden in einer 5%-igen wäßrigen Lösung von Polyoxyäthylensorbitanmonooleat [Tween 80® suspendiert und diese Suspensionen wurden.auf peroralem Wege mit einer Sonde den Tieren verabreicht. Die Wirkstoffe wurden in den zur Untersuchung der krampfhemmenden beziehungsweise antikonvulsiven Wirkung durchgeführten Versuchen in Dosen von 20 mg/kg Körpergewicht und zur Messung der neurotoxischen Wirkung in Dosen von 80 mg/kg Körpergewicht verabreicht. Die Wirkungen wurden 1 Stunde nach der Verabreichung durch die im folgenden beschriebenen Verfahrensweisen gemessen.
a) Maximaler Elektroschock [MES]
Die Tiere wurden nach der Verfahrensweise von E. A. Swinyard und Mitarbeitern (J. Pharmacol. 106 [1952], 319) mit einer Hornhautelektrode beziehungsweise Corneal--Elektrode (20 mA, 0,2 Sekunde) geschockt. 100% der Blindversuchs- beziehungsweise Kontrolltiere reagierten auf diesen Reiz mit einem tonischen Streckkrampf (extensorischen Krampf) der hinteren Gliedmaßen. Das Unterbleiben dieser Reaktion wurde als unter der Wirkung der Behandlung eingetretener Schutz gewertet.

For data set [2], the system named is CFLP-Mäusen. The data set is described as follows: Inhibition of pentamethylenetetrazole (pentetrazole) convulsion. The data set is classed as in vivo. As to conditions: Mus musculus, sc; 20 mg/kg peroral, 1 hour after dosing, groups of 10 mice; 125 mg/kg Pentamethylentetrazol subcutaneous; read-out: Hemmwirkung in % in Bezug auf den Pentamethylentetrazolkrampf tonischen Streckkrampf.
Text: as §1
b) Hemmwirkung gegen den Pentamethylentetrazolkrampf [Pentetrazolkrampf]
Es wurden 125 mg Pentamethylentetrazol/kg Körpergewicht nach der Verfahrensweise von Cr. N. Everett und R. K. Richards (J. Pharmacol. Exp: Therap. 81 [1944], 402) den Tieren subkutan verabreicht. 1 Stunde nach der Verabreichung des zu untersuchex den Wirkstoffes wurde die Wirkung beobachtet: Als Schutiwirkung wurde das Unterbleiben des klonischen Krampfes beriehungsweise des tonischen Streckkrampfes der hinteren GliedmaBen bewertet.

A further data set can be described thus: Acute toxicity (LD50). The settings on record: mouse, in vivo, po; single peroral dose, 14 days observation, mice; read-out: Peroraler LD50-Wert (converted).
Text: as §1
Die Toxizität der zu untersuchenden Verbindungen wurde nach 1-maliger Verabreichung von verschiedenen Dosen durch 14 Tage lange Beobachtung der Tiere ermittelt. Die LD50-Werte (die bei 50% der Tiere tödlichen Dosen) wurden auf Grund des Prozentsatzes der innerhalb 14 Tage verendeten Tiere berechnet.

Each structure is given as a SMILES string.

Take `O=C1CONC(c2ccc(O)cc2)N1` (stereo not drawn) [Beispiel 63]: the responders at 20 mg/kg in the data set with CFLP-Mäusen [1] worked out at 40%; in the data set on CFLP-Mäusen [2], 20%. In addition, the LD50 at 336 h in “Acute toxicity (LD50)” is 800 mg/kg.
`CC(=O)N1OC(Cc2ccccc2)C(=O)NC1c1ccccc1` (racemic) [Beispiel 60]: in the data set with CFLP-Mäusen [2], the responders at 20 mg/kg was found to be 20%. In “Acute toxicity (LD50)”, the median lethal dose (LD50) at 336 h was 1000 mg/kg.
Take `CC(=O)N1OCC(=O)NC1c1ccccc1` (stereo not drawn) [Beispiel 2, 2-Acetyl-3-phenyltetrahydro-1,2,4-oxadiazin-5-on]: the responders at 20 mg/kg is 70% with CFLP-Mäusen [1] and 90% with CFLP-Mäusen [2]. In addition, the LD50 at 336 h in “Acute toxicity (LD50)” is 1190 mg/kg.
With `CC(=O)N1OCC(=O)NC12CCCCC2` [Beispiel 83], the responders at 20 mg/kg in the data set with CFLP-Mäusen [1] came to 40%. The median lethal dose (LD50) at 336 h in the data set “Acute toxicity (LD50)” is 1000 mg/kg.
Taken in the same sequence, the figures for `CC(=O)N1OCC(=O)NC1c1cccc2ccccc12` (stereo not drawn) [Beispiel 15] were 40% and 800 mg/kg.
With `CC(=O)N1OCC(=O)NC1c1cccs1` (stereo not drawn) [Beispiel 16], the responders at 20 mg/kg was determined as 20% in the data set on CFLP-Mäusen [1] and 40% in the data set with CFLP-Mäusen [2]. Moreover, the 50% lethal dose (LD50) at 336 h in “Acute toxicity (LD50)” is 800 mg/kg.
Regarding `CC(=O)N1OCC(=O)NC1c1ccc(C(=O)O)cc1` (stereo not drawn) [Beispiel 84], the responders at 20 mg/kg with CFLP-Mäusen [1] was determined as 40%. Besides, the LD50 at 336 h in the data set “Acute toxicity (LD50)” is 1000 mg/kg.
In the same order, the values of `CC(=O)N1OCC(=O)NC1c1ccc(Br)cc1` (stereo not drawn) [Beispiel 14] are 40% and 800 mg/kg.
Consider `CC(=O)N1OC(C)C(=O)NC1c1ccccc1` (racemic) [Beispiel 61, 2-Acetyl-3-phenyl-6-methyltetrahydro-1,2,4-oxadiazin-5-on], for which the responders at 20 mg/kg with CFLP-Mäusen [1] was 20%; with CFLP-Mäusen [2], 50%. For the same compound, in “Acute toxicity (LD50)”, the LD50 at 336 h is 1000 mg/kg.
With `CC(=O)N1OCC(=O)NC1c1ccc(F)cc1` (stereo not drawn) [Beispiel 13, 2-Acetyl-3-(4'-fluorphenyl)-tetrahydro-1,2,4-oxadiazin-5-on], the responders at 20 mg/kg with CFLP-Mäusen [1] and with CFLP-Mäusen [2] was 40% throughout. In the data set “Acute toxicity (LD50)”, the LD50 at 336 h is 800 mg/kg.
Regarding `CC(=O)N1OCC(=O)N(C(C)=O)C1c1ccccc1` (stereo not drawn) [Beispiel 8, 2,4-Diacetyl-3-phenyltetrahydro-1,2,4-oxadiazin-5-on], the responders at 20 mg/kg in the data set on CFLP-Mäusen [1] stood at 60%; in the data set with CFLP-Mäusen [2], 40%. Also, the LD50 at 336 h in the data set “Acute toxicity (LD50)” was 1000 mg/kg.
For the compound `CCOC(=O)N1OCC(=O)NC1c1ccccc1` (stereo not drawn) [Beispiel 89], in the data set on CFLP-Mäusen [2], the responders at 20 mg/kg was 20%. Further, in the data set “Acute toxicity (LD50)”, the LD50 at 336 h is 1000 mg/kg.
Turning to `O=C1NC(=O)C(c2ccccc2)(c2ccccc2)N1` [Vergleichssubstanz A, 5,5-Diphenylhydantoin, reference compound], the values for the responders at 20 mg/kg in the data set with CFLP-Mäusen [1] and in the data set on CFLP-Mäusen [2] were 90% and 80%, respectively. The 50% lethal dose (LD50) at 336 h in “Acute toxicity (LD50)” is 279 mg/kg.
Taken in the same sequence, the figures for `CCC1(c2ccccc2)NC(=O)N(C)C1=O` (stereo not drawn) [Vergleichssubstanz B, 3-Methyl-5-äthyl-5-phenylhydantoin, reference compound] were 10%, 50% and 476 mg/kg.

The LD50 is the dose at which mortality reaches 50%.
